Data taken from patent US9205121B2, “Echinacea formulation” (Integria Healthcare (Australia) PTY LTD, priority 2004, dated 2015).

Key:
human liver microsomes = type: in vitro ADME
Procedure: Livers were obtained from organ donors according to procedures is approved by the University of Queensland ethics committees. Samples of human liver were frozen in liquid nitrogen and stored at −70° C. prior to use. Microsomes were prepared according to the method of Guengerich except that microsomes were subjected to a final wash in 10 mM Tris-acetate, 1 mM EDTA and 20% glycerol pH 7.4 (resuspension buffer) to remove residual drugs (e.g. phenytoin—data not shown) present in donor livers.
Incubations (0.5 mL) with tissue fractions contained either the microsomal fraction at […] or the cytosolic fraction at 5 mg/mL protein in 100 mM potassium phosphate (pH 7.4) supplemented with is substrates (synthetic alkylamides 6, 11, 3 and 12 or the alkylamide fraction from the ethanolic liquid as required—see Figure legends for concentrations used) added from ethanolic stocks. Final ethanol concentrations were either 0.70% or 0.96% and were consistent in each assay. Reactions were initiated by the addition of an NADPH-generating system consisting of (final concentrations) […] NADP+, 10 mM glucose-6-phosphate and 0.5 μ/mL glucose-6-phosphate dehydrogenase. Negative controls and cytosolic incubations lacked an NADPH-generating system. Reaction mixtures were incubated at 37° C. with gentle agitation for the duration of each experiment. Reactions were terminated by addition of an equal volume of 100% methanol to a sample aliquot. Diluted samples were then centrifuged at 16000×g for 2 minutes and supernatants stored at −20° C. until analysis by LCMS.
Alkylamide concentrations in samples were determined by LCMS using a gradient HPLC system (Shimadzu LC1OAT) coupled to a quadrupole mass spectrometer (Shimadzu, QP8000a) operating in positive SIM mode with an APCI interface. The mobile phases were a mixture of water and acetonitrile. Alkylamides 6 and 3 were detected using a 65% acetonitrile isocratic run. Alkylamides 11 and 12 were detected using an 85% acetonitrile isocratic run. The alkylamide fraction was analysed using a gradient that increased from 20% to 40% acetonitrile over the first 5 minutes, then to 80% acetonitrile over the following 15 minutes and to 100% over the next 3 minutes followed by a re-equilibration period at 20% acetonitrile prior to the next injection. A similar gradient was used in scan and then SIM (M+1 of 248, 264, 246, 192, 280 and 282) modes to identify metabolites of 3. A C18, 3 m, 100×2.00 mm Phenomenex Luna column was used with a solvent flow rate of 0.3 mL/minute. All alkylamides were linear in the range 0.001-10 mg/mL (R^2>0.9) with a coefficient of variation between 4 and 5.
A number of pure, synthetic alkylamides (6, 11 3 and 12 as shown in FIG. 1) as well as the complex mixture of alkylamides obtained from an ethanolic extract of Echinacea were investigated for their susceptibility to liver P450-mediated degradation in microsomal preparations from four different subjects. The concentration of each substrate remaining at the given time points was quantified with LCMS and rates of substrate depletion were calculated as a percentage of the original concentration. […] From FIG. 3 it can be seen that there was a clear difference in the ability of the liver microsomal P450s to metabolise the synthetic 2-ene and the 2,4-diene alkylamides. […] In contrast, the 2,4-dienes were rapidly metabolised with only 9±2% of the original concentration of 3 and 2±1% of the original concentration of 12 detected after 2 hours. […]

phagocytosis = details: in vitro and in vivo; cited from earlier work
TNF-α = TNF-α production under LPS stimulated conditions in macrophages; type: cell-based, mouse; details: RAW 264.7 macrophages
Text: Macrophages play an essential role in the development of specific and non-specific immune responses. Upon activation by a variety of stimuli macrophages release a number of products having biological activity. Such products include cytokines, such as TNF-α, […] and nitric oxide (NO). Macrophages undergo a process of cellular “activation” which is associated with morphological, functional, and biochemical changes in the cells in response to inflammatory signals or antigens. One prominent characteristic of activated macrophages is their increased capacity to release pro-inflammatory and cytotoxic mediators, which help aid in the resolution of infection or inflammation. As a prelude to macrophage activation LPS must bind to a receptor on the macrophage cell surface. Several LPS receptors have been identified in different macrophages with the most thoroughly studied receptor being the CD14 receptor.
The synthetic alkylamides correspond to the major 2-ene and 2,4-diene alkylamides found in Echinacea. These alkylamides are illustrated in FIG. 1 as compounds 6 and 3 respectively.

Q: With `C#CC#CCCCC/C=C/C(=O)NCC(C)C` [alkylamide 6, (2E)-N-isobutylundeca-2-ene-8,10-diynamide] as the compound, how does the “% of initial levels still present” value (human liver microsomes; human, 2 h, pH 7.4) read?
A: Its value is 91±24%.

Q: With `CC#CC#CCCCC/C=C/C(=O)NCC(C)C` [alkylamide 11, (2E)-N-isobutyldodeca-2-ene-8,10-diynamide] as the compound, how does the “rate of alkylamide metabolism relative to the rate found for 6” value (human liver microsomes) read?
A: The value was “two fold higher”.

Q: Which “rate of alkylamide metabolism relative to the rate found for 6” value (human liver microsomes) does the source give for `CCCCCCC/C=C/C=C/C(=O)NCC(C)C` [alkylamide 12, (2E-4E)-N-isobutyldodea-2,4-dienamide] here?
A: Its value is “ten fold higher”.

Q: For `O=C(/C=C/c1ccc(O)c(O)c1)O[C@@H](C(=O)O)[C@@H](OC(=O)/C=C/c1ccc(O)c(O)c1)C(=O)O` [cichoric acid], which stimulation of phagocytosis (phagocytosis) is on record?
A: Its stimulation of phagocytosis is “marked stimulation”.

Q: And the “TNF-α production under LPS stimulated conditions” value (TNF-α)?
A: The value was “significantly decreased”.
